Patent publication US10212937B2, “Microbicidal aqueous solutions including a monochloramine and a peracid, and methods of using the same” (priority 2015, dated 2019)

Legend:
Pseudomonas aeruginosa = assay: Microbicidal evaluation in nutrient broth, lowest concentration completely preventing growth, Kull synergism calculation; assay type: cell-based; conditions: contact time 24 hours, 37° C., approx. 10^6 cfu/ml, complete prevention of growth
Procedure: (§1) Nutrient broth (2.5 g/liter of deionized water) was prepared and dispensed in 5 ml amounts into test tubes and autoclaved for 20 minutes at 121° C. The biocides were added to the test tubes in the desired concentrations, and then 100 microliters of a 24-hour grown suspension of Pseudomonas aeruginosa or Enterobacter aerogenes cells were added to the respective test tubes to give a final count of approximately 10^6 cfu/ml and incubated at 37° C. at the indicated contact times.
(§2) End points for the various mixtures were then compared with the end points for the pure active ingredients alone in concomitantly prepared flasks or test tubes.
(§3) which produced an end point.
(§4) Qb=Lowest concentration of compound B in parts per million, acting alone,
(§5) QA=Lowest concentration of compound A in parts per million, in the mixture,
(§6) QB=Lowest concentration of compound B in parts per million, in the mixture,
(§7) When the sum of QA/Qa and QB/Qb is greater than one, antagonism is indicated. When the sum is equal to one, additivity is indicated. When the sum is less than one, synergism exists.
Contact time was 24 hours. The MCA and peracetic acid were obtained in the same manner as Example 1.

Enterobacter aerogenes = assay: as above; assay type: cell-based; conditions: contact time 15 hours
Procedure: as §1, §2, §3, §4, §5, §6, §7
Contact time was 15 hours. The MCA was obtained by combinations of ammonium sulfate in the form of Oxamine 6150 or Busan 1215 (all from Buckman Laboratories, Memphis, Tenn.) and the oxidant, Bulab 6004 (from Buckman Laboratories). The peracetic acid was from Sigma-Aldrich (32 wt. % in dilute acetic acid) which was diluted in deionized water to desired concentration range prior to adding it to the test systems.

[1] = 37° C., approx. 10^6 cfu/ml, complete prevention of growth

Row | SMILES | Qb, lowest concentration of compound B acting alone which produced an end point (Pseudomonas aeruginosa) [ppm] | QB/Qb (Enterobacter aerogenes) | Qb, lowest concentration of compound B acting alone which produced an end point (Enterobacter aerogenes; [1]) [ppm] | Qa, concentration of compound A acting alone which produced an end point (Pseudomonas aeruginosa) [ppm] | Qa, concentration of compound A acting alone which produced an end point (Enterobacter aerogenes; [1]) [ppm]
1 | NCl [monochloramine] | 50 | 0.5 | 100 | – | –
2 | CC(=O)OO [peracetic acid] | – | – | – | 10 | 25.0
